Test results as given in publication PMC6332320, “Factors Influencing Oral Bioavailability of Thai Mango Seed Kernel Extract and Its Key Phenolic Principles” (Molecules, 2015).

Test system: Caco-2 monolayer
Assay: Caco-2 transepithelial transport experiment
Assay type: in vitro ADME, human
Conditions: 20 µM
Protocol: The transport experiment using Caco-2 monolayer was performed according to the criteria in our laboratory as previously reported with slight modification. Briefly, the cell monolayers were prepared by seeding 400,000 cells onto a polycarbonate insert, which has a surface area and pore size of 4.2 cm^2 and 3 μm, respectively (Nunc™, Thermo Fisher Scientific, Waltham, MA, USA). Cells were maintained in a humidified atmosphere at 37 °C (90% humidity and 5% CO2) and fed every other day. After 19 to 22 days post-seeding, the cell monolayers were used in the experiments. Before the experiment, the monolayers were quickly washed twice with pre-warmed HBSS at pH 7.4 (37 °C). The integrity of each monolayer was then verified by measuring the transepithelial electrical resistance (TEER) using a Millicell® ERS meter (Millipore, Bedford, MA, USA), and layers with TEER values less than 400 Ω/cm^2 relative to that of the blank insert were discarded. Then, the monolayers were incubated with the HBSS buffer at 37 °C for 1 h, and the incubation buffer was then aspirated. The test compounds were dissolved in HBSS at pH 6 to obtain final concentrations for the individual compounds (20 μM), mixture (20 μM) and MSKE (0.25 mg/mL), which were then loaded onto the A or B side (2.6 mL) as the donor side. A 2.6 mL aliquot of HBSS at pH 6 without the test compounds was loaded into the other side as the receiver side. After incubation at 37 °C, 0.6 mL of sample was collected from the receiver side at indicated times (60, 120, 180 and 240 min), and the same volume of receiver medium was replaced after each sampling. At the end of the experiment, the cells were washed twice with ice-cold HBSS at pH 6. The cells in each well were then collected and resuspended in 600 μL of HBSS at pH 6, and sonicated in an ice water bath at an output of 9 W for 30 min to obtain the cell lysates. The lysate was divided into the following aliquots: (1) 20 μL for quantitative protein assessment using a BCA™ protein assay kit and (2) 580 μL for quantitative test compounds. The samples collected from the transport study were stored at −20 °C until the UPLC or LC–MS/MS analysis. The experiments were performed in triplicate.
The apparent permeability coefficient (Papp, cm/s) of each compound was calculated according to the following equation (Equation (1)): (1) Papp= dQ/dt×1/AC0 where dQ/dt is the compound permeation rate (nmol/s), A denotes the membrane surface area, and C0 is the initial concentration on the donor side (µM). The efflux ratio was calculated according to the following equation (Equation (2)): (2) Efflux ratio= Papp BA(mean)/Papp AB(mean) where Papp BA (mean) and Papp AB (mean) are the average apparent permeability coefficients of each compound from side B to side A, and from side A to side B, respectively.

In the case of `O=C(O)c1cc(O)c(O)c(O)c1` [GA, Gallic acid], the “accumulation in the cells (cellular uptake)” value (after individual bi-directional transport across Caco-2 monolayer) is reported as “could not be detected” and the “Papp B to A” value (human, Caco-2, 240 min, pH 6) is reported as 1.87 ± 0.47 ×10^−6 cm/s.
